Measurements from patent publication EP4707277A1, “NOVEL HETEROCYCLIC AMINE DERIVATIVES AND PHARMACEUTICAL COMPOSITION COMPRISING SAME” (Daewoong Pharmaceutical Co., Ltd., priority 2023, dated 2024).

Tests used:
[1] = biological target: T1, BTK (Homo sapiens, UniProt Q06187); assay: Inhibitory activity against BTK, ADP-Glo Kinase system (Promega); type: biochemical; details: 1mM ATP; read-out: BTK IC50(nM) 1mM ATP
T1 construct: purchased Signalchem B10-10H
Procedure, shortened: (§1)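 ADP-Glo luminescent ADP detection with recombinant human ITK (4 ng/reaction) or BTK (10 ng/reaction) and poly(Glu4,Tyr1) substrate at 0.2 µg/µl. Buffer: Tris pH 7.5, MgCl2, MnCl2, BSA, DTT. ATP 1 mM or Km (BTK 10 µM, ITK 25 µM); 1% DMSO; 1 h at 30°C; IC50 from curve fit.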

[2] = biological target: T2, ITK (Homo sapiens, UniProt Q08881); assay: Inhibitory activity against ITK, ADP-Glo Kinase system (Promega); type: biochemical; details: 1mM ATP; read-out: ITK IC50(nM) 1mM ATP
T2 construct: purchased Signalchem I13-11G-10
T2 sequence (Q08881 1-620): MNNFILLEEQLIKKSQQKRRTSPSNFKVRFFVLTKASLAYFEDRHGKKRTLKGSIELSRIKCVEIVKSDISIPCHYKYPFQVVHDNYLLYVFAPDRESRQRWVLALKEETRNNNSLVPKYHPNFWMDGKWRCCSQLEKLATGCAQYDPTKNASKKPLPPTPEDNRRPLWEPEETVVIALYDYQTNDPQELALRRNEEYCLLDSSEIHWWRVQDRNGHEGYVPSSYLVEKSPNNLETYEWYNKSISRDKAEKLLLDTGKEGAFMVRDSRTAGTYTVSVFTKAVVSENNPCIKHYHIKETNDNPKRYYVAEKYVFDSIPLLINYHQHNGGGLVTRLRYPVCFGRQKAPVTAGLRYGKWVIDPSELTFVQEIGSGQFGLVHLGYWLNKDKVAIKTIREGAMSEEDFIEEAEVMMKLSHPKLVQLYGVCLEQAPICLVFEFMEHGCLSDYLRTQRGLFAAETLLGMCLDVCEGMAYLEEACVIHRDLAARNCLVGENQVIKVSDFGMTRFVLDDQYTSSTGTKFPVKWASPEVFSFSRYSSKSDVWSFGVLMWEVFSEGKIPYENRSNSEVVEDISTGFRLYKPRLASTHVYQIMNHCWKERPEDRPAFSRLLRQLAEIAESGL
Procedure, shortened: as §1

T1 sequence (Q06187 whole entry): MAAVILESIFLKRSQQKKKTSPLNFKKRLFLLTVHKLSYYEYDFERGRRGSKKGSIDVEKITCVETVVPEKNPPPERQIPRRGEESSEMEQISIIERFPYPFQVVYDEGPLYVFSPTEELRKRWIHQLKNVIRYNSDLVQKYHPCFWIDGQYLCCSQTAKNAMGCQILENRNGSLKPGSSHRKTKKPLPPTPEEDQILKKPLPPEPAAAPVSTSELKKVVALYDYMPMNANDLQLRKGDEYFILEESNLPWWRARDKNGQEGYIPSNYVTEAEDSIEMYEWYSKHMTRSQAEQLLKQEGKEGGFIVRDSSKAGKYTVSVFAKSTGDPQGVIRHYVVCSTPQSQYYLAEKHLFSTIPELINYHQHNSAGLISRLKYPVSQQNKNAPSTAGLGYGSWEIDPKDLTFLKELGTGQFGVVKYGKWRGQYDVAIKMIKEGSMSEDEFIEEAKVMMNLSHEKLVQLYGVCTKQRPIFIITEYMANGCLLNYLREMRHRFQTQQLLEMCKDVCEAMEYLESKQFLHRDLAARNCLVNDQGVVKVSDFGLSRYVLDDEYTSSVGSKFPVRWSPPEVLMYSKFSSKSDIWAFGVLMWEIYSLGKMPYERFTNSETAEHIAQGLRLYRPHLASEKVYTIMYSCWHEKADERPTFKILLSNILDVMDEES

Row | Structure (SMILES) | IC50 [1] | IC50 [2]
1 | Cc1cnc(Nc2cc3c(ccn3CC(C)C)c(O[C@H]3CCN(C(=O)/C=C/CN(C)C)C3)n2)s1 [Example 227, (S,E)-4-(dimethylamino)-1-(3-((1-isobutyl-6-((5-methylthiazol-2-yl)amino)-1H-pyrrolo[3,2-c]pyridin-4-yl)oxy)pyrrolidin-1-yl)but-2-en-1-one] | > 500 nM | > 500 nM
2 | Cc1cnc(Nc2cc3c(ccn3CC(C)C)c(O[C@@H]3CN(C(=O)CCl)C[C@@H]3F)n2)s1 [Example 229, 2-chloro-1-((3S,4R)-3-fluoro-4-((1-isobutyl-6-((5-methylthiazol-2-yl)amino)-1H-pyrrolo[3,2-c]pyridin-4-yl)oxy)pyrrolidin-1-yl)ethan-1-one] | 20 to 100 nM | ≤ 20 nM
3 | CC#CC(=O)N1C[C@H](F)[C@H](Oc2nc(Nc3ncc(C)s3)cc3c2ccn3CC(C)C)C1 [Example 230, 1-((3S,4R)-3-fluoro-4-((1-isobutyl-6-((5-methylthiazol-2-yl)amino)-1H-pyrrolo[3,2-c]pyridin-4-yl)oxy)pyrrolidin-1-yl)but-2-yn-1-one] | > 500 nM | > 500 nM

Second part, the molecule after the results:

Row | IC50 [1] | IC50 [2] | Structure (SMILES)
4 | ≤ 20 nM | ≤ 20 nM | C=CS(=O)(=O)N1C[C@H](F)[C@H](Oc2nc(Nc3ncc(C)s3)cc3c2ccn3CC(C)C)C1 [Example 228, N-(4-(((3R,4S)-4-fluoro-1-(vinylsulfonyl)pyrrolidin-3-yl)oxy)-1-isobutyl-1H-pyrrolo[3,2-c]pyridin-6-yl)-5-methylthiazol-2-amine]
5 | ≤ 20 nM | ≤ 20 nM | C#CC(=O)N1C[C@H](F)[C@H](Oc2nc(Nc3ncc(C)s3)cc3c2ccn3CC(C)C)C1 [Example 231, 1-((3S,4R)-3-fluoro-4-((1-isobutyl-6-((5-methylthiazol-2-yl)amino)-1H-pyrrolo[3,2-c]pyridin-4-yl)oxy)pyrrolidin-1-yl)prop-2-yn-1-one]
